Laboratory results taken from US5663148A, “Anaphylatoxin receptor ligands containing lipophilic residues” (Abbott Laboratories, priority 1994, dated 1997).
Where a SMILES comes first, the peptide text is derived from it. [ ]: non-standard residue; d: D form. The star is where a group is joined. Pentanoyl(5-Ph) = O=C(CCCCc1ccccc1)*; d(hhPhe) = N[C@H](CCCc1ccccc1)C(=O)O; Hydrocinnamoyl = O=C(CCc1ccccc1)*; Cha = N[C@@H](CC1CCCCC1)C(=O)O; X7 = O=C(C(O)CC1CCCCC1)*; X8 = c1ccc(CCC*)cc1; Bn = c1ccc(C*)cc1

Target: T1, C5a receptor (Homo sapiens, UniProt P21730)
T1 construct: from tissue; host or cells: polymorphonuclear leukocyte (PMNL) membrane fragments
T1 sequence (P21730 1-350): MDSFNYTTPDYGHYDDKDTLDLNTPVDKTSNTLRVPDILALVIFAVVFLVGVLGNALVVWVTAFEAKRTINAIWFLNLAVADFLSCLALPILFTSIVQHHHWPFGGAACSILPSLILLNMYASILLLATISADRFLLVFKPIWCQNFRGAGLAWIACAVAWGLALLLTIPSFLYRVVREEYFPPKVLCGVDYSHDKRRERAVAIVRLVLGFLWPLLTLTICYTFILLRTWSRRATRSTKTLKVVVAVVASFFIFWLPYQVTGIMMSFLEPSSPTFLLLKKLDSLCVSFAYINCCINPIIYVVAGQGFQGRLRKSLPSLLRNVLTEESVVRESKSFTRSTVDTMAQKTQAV
Assay: Anaphylatoxin (C5a) receptor binding Ki determination, 125I-C5a on PMNL membrane fragments
Details: read-out: Ki (In vitro C5a Receptor Binding Potency)
Experimental: The membrane-bound radiolabeled C5a was separated from the free radiolabeled C5a by filtration, and the recovered gamma radioactivity was measured. […] Free and membrane-bound ligand were separated by filtration.

Row | SMILES | Ki
1 | CC(C)C[C@H](NC(=O)CNC(=O)[C@H](CC1CCCCC1)NC(=O)CCCCCN)C(=O)NC(CCCc1ccccc1)C(=O)N[C@@H](CCCNC(=N)N)C(=O)O (single isomer, unassigned) [Example 71] | 0.15 µM
2 | CC(=O)N[C@@H](CC1CCCCC1)C(=O)NCC(=O)N[C@@H](CC(C)C)C(=O)NC(CCCc1ccccc1)C(=O)N[C@@H](CCCNC(=N)N)C(=O)O (single isomer, unassigned) [Example 45] | 7.58 µM
3 | CC(C)C[C@H](NC(=O)CNC(=O)[C@@H](N)Cc1c[nH]c2ccccc12)C(=O)N[C@H](CCCc1ccccc1)C(=O)N[C@@H](CCCNC(=N)N)C(=O)O [Example 130, H-Tryptophanyl-Glycyl-Leucyl-{(R)-2-Amino-5-phenylpentanoyl}-Arginyl-OH] (H-WGL[d(hhPhe)]R-OH) | 0.14 µM
4 | CC(C)[C@H](NC(=O)CNC(=O)[C@H](CC1CCCCC1)NC(=O)CCCCCN)C(=O)NC(CCCc1ccccc1)C(=O)N[C@@H](CCCNC(=N)N)C(=O)O (single isomer, unassigned) [Example 101] | 52 µM
5 | CC(C)C[C@H](NC(=O)CNC(=O)[C@H](CC1CCCCC1)NC(=O)CN(C)C(=O)CCCN)C(=O)NC(CCCc1ccccc1)C(=O)N[C@@H](CCCNC(=N)N)C(=O)O (mixture of isomers) [Example 113, N-(gamma-Aminobutyryl)-Sarcrosinyl-{(2S)-2-Amino-3-cyclohexyl-propanoyl}-Glycyl-Leucyl-{(R/S)-2-Amino-5-phenylpentanoyl}-Arginyl-OH] | 0.87 µM
6 | CC(C)C[C@H](NC(=O)[C@@H]1CCCN1C(=O)[C@H](CC1CCCCC1)NC(=O)CCCCCN)C(=O)NC(CCCc1ccccc1)C(=O)N[C@@H](CCCNC(=N)N)C(=O)O (mixture of isomers) [Example 11, N-(6-Aminohexanoyl)-{(2S)-2Amino-3-cyclohexylpropanoyl}-Prolyl-Leucyl-{(R/S)-2-Amino-5-phenylpentanoyl}-Arginyl-OH] | 3.6 µM
7 | CC(C)C[C@H](NC(=O)[C@H](C)NC(=O)[C@H](CC1CCCCC1)NC(=O)CNC(=O)CCCCCN)C(=O)NC(CCCc1ccccc1)C(=O)N[C@@H](CCCNC(=N)N)C(=O)O (single isomer, unassigned) [Example 32] | 10 µM
8 | CC(C)C[C@H](NC(=O)[C@H](C)NC(=O)[C@H](CC1CCCCC1)NC(=O)CCCCCN)C(=O)NC(CCCc1ccccc1)C(=O)N[C@@H](CCCNC(=N)N)C(=O)O (single isomer, unassigned) [Example 135] | 1.3 µM
9 | CC(C)C[C@H](NC(=O)CNC(=O)C(O)CC1CCCCC1)C(=O)N[C@H](CCCc1ccccc1)C(=O)N[C@@H](CCCNC(=N)N)C(=O)O (stereo partly drawn) [Example 132, N-(3-Cyclohexyl-2-hydroxypropionyl)-Glycyl-Leucyl-{(R)-2-Amino-5-phenylpentanoyl}-Arginyl-OH] (X7-GL[d(hhPhe)]R-OH) | 0.42 µM
10 | CC(C)C[C@H](NC(=O)[C@H](CC1CCCCC1)NC(=O)CCCCCN)C(=O)NC(CCCc1ccccc1)C(=O)N[C@@H](CCCNC(=N)N)C(=O)O (single isomer, unassigned) [Example 86, N-(6-Aminohexanoyl)-{(25)-2-Amino-3-cyclohexylpropanoyl}-Leucyl-{(R/S)-2-Amino-5-phenylpentanoyl}-Arginyl-OH] | 44.8 µM
11 | CC(C)C[C@H](NC(=O)CNC(=O)[C@H](CC1CCCCC1)NC(=O)CCCCc1ccccc1)C(=O)N[C@H](CCCc1ccccc1)C(=O)N[C@@H](CCCNC(=N)N)C(=O)O [Example 62, N-(5-Phenylvaleryl)-{(2S)-2-Amino-3-cyclohexylpropanoyl}-Glycyl-Leucyl-{(R)-2-Amino-5-phenylpentanoyl}-Arginyl-OH] ({Pentanoyl(5-Ph)}-[Cha]GL[d(hhPhe)]R-OH) | 1.07 µM
12 | CC(C)C[C@H](NC(=O)CNC(=O)C(N)CCCc1ccccc1)C(=O)N[C@H](CCCc1ccccc1)C(=O)N[C@@H](CCCNC(=N)N)C(=O)O (single isomer, unassigned) [Example 104] | 2.4 µM
13 | CC(C)C[C@H](NC(=O)CNC(=O)[C@H](CC1CCCCC1)N(C)C(=O)CCCCCCN)C(=O)NC(CCCc1ccccc1)C(=O)N[C@@H](CCCNC(=N)N)C(=O)O (single isomer, unassigned) [Example 76] | 1.5 µM
14 | CC(C)C[C@H](NC(=O)[C@H](C)NC(=O)[C@H](CC1CCCCC1)NC(=O)CNC(=O)CCCCCN)C(=O)NC(CCCc1ccccc1)C(=O)N[C@@H](CCCNC(=N)N)C(=O)O (single isomer, unassigned) [Example 33] | 0.68 µM
15 | CC(C)C[C@H](NC(=O)CNC(=O)[C@H](CC1CCCCC1)NC(=O)CCCCCN)C(=O)NC(CCCc1ccccc1)C(=O)N[C@@H](CCCNC(=N)N)C(=O)O (single isomer, unassigned) [Example 70] | 4.5 µM
16 | CC(C)C[C@H](NC(=O)CNC(=O)[C@H](CC1CCCCC1)NC(=O)CN)C(=O)NC(CCCc1ccccc1)C(=O)N[C@@H](CCCNC(=N)N)C(=O)O (single isomer, unassigned) [Example 73] | 1.99 µM
17 | CC(C)C[C@H](NC(=O)CNC(=O)[C@H](CC1CCCCC1)NC(=O)[C@@H](N)CCCCN)C(=O)NC(CCCc1ccccc1)C(=O)N[C@@H](CCCNC(=N)N)C(=O)O (single isomer, unassigned) [Example 41, H-Lysyl-{(2S)-2-Amino-3-cyclohexylpropanoyl}-Glycyl-Leucyl-{(R/S)-2-Amino-5-phenylpentanoyl}-Arginyl-OH] | 25.4 µM
18 | CC(C)C[C@H](NC(=O)CN(C)C(=O)[C@H](CC1CCCCC1)NC(=O)CCCCCCN)C(=O)NC(CCCc1ccccc1)C(=O)N[C@@H](CCCNC(=N)N)C(=O)O (single isomer, unassigned) [Example 60] | 19 µM
19 | CC(C)C[C@H](NC(=O)[C@@H]1CCCN1C(=O)[C@H](CC1CCCCC1)NC(=O)CNC(=O)CCCCCN)C(=O)NC(CCCc1ccccc1)C(=O)N[C@@H](CCCNC(=N)N)C(=O)O (single isomer, unassigned) [Example 110] | 9.3 µM
20 | CC(C)C[C@H](NC(=O)CNC(=O)[C@@H](N)Cc1ccccc1)C(=O)N[C@H](CCCc1ccccc1)C(=O)N[C@@H](CCCNC(=N)N)C(=O)O [Example 116, H-Phenylalanyl-Glycyl-Leucyl-{(R)-2-Amino-5-phenylpentanoyl}-Arginyl-OH] (H-FGL[d(hhPhe)]R-OH) | 0.63 µM
21 | CC(C)C[C@H](NC(=O)[C@H](C)NC(=O)[C@H](CC1CCCCC1)NC(=O)[C@@H]1CCCN1C(=O)[C@H](CCCCN)NC(=O)CN)C(=O)N[C@H](CSCCCc1ccccc1)C(=O)N[C@@H](CCCNC(=N)N)C(=O)O [Example 22, H-Glycyl-Lysyl-Prolyl-{(2S)-2-Amino-3-cyclohexylpropanoyl}-Alanyl-Leucyl-DCysteinyl(S-3-phenylpropyl)-Arginyl-OH] (H-GKP[Cha]AL[dC](X8)R-OH) | 4.7 µM
22 | CC(C)C[C@H](NC(=O)[C@H](C)NC(=O)[C@H](CC1CCCCC1)NC(=O)[C@@H]1CCCN1C(=O)[C@H](CCCCN)NC(=O)CN)C(=O)N[C@H](CSCc1ccccc1)C(=O)N[C@@H](CCCNC(=N)N)C(=O)O [Example 31, H-Glycyl-Lysyl-Propyl-{(2S)-2-Amino-3-cyclohexylpropanoyl}-Alanyl-Leucyl-DCysteinyl(S-benzyl)-Arginyl-OH] (H-GKP[Cha]AL[dC](Bn)R-OH) | 1.1 µM
23 | CC(C)C[C@H](NC(=O)Cc1c[nH]c2ccccc12)C(=O)N[C@@H](CCCc1ccccc1)C(=O)N[C@@H](CCCNC(=N)N)C(=O)O [Example 20, N-{Indole-3-acetyl}-Leucyl-{(S)-2-Amino-5-phenylpentanoyl}-Arginyl-OH] | 6.65 µM
24 | CC(C)C[C@H](NC(=O)[C@H](C)NC(=O)[C@H](CC1CCCCC1)NC(=O)[C@@H]1CCCN1C(=O)[C@H](CCCCN)NC(=O)CN)C(=O)N[C@@H](CSCc1ccccc1)C(=O)N[C@@H](CCCNC(=N)N)C(=O)O [Example 108, H-Glycyl-Lysyl-Prolyl-{(2S)-2-Amino-3-cyclohexylpropanoyl}-Alanyl-Leucyl-Cysteinyl(S-benzyl)-Arginyl-OH] (H-GKP[Cha]ALC(Bn)R-OH) | 4.8 µM
25 | CC(C)C[C@H](NC(=O)[C@@H]1CCCN1C(=O)[C@H](CC1CCCCC1)NC(=O)CNC(=O)CCCCCN)C(=O)NC(CCCc1ccccc1)C(=O)N[C@@H](CCCNC(=N)N)C(=O)O (single isomer, unassigned) [Example 111] | 1 µM
26 | CC(C)C[C@H](NC(=O)[C@H](C)NC(=O)[C@H](CC1CCCCC1)NC(=O)[C@@H]1CCCN1C(=O)[C@H](CCCCN)NC(=O)CN)C(=O)NC(CCCc1ccccc1)C(=O)N[C@@H](CCCNC(=N)N)C(=O)O (single isomer, unassigned) [Example 53, H-Glycyl-Lysyl-Prolyl-{(2S)-2-Amino-3-cyclohexylpropanoyl}-Alanyl-Leucyl-{(R/S)-2-Amino-5-phenylpentanoyl}-Arginyl-OH] | 0.1 µM
27 | CC(C)C[C@H](NC(=O)[C@H](CC1CCCCC1)NC(=O)CCCCCN)C(=O)NC(CCCc1ccccc1)C(=O)N[C@@H](CCCNC(=N)N)C(=O)O (single isomer, unassigned) [Example 87] | 5.8 µM
28 | CC(C)C[C@H](NC(=O)CNC(=O)C=C1CNc2ccccc21)C(=O)N[C@H](CCCc1ccccc1)C(=O)N[C@@H](CCCNC(=N)N)C(=O)O (single isomer, unassigned) [Example 66] | 0.046 µM
29 | CC(C)C[C@H](NC(=O)CNC(=O)[C@H](CC1CCCCC1)NC(=O)CCc1ccccc1)C(=O)N[C@H](CCCc1ccccc1)C(=O)N[C@@H](CCCNC(=N)N)C(=O)O [Example 49, N-(3-Phenylpropanoyl)-{(2S)-2-Amino-3-cyclohexylpropanoyl}-Glycyl-Leucyl-{(R)-2-Amino-5-phenylpentanoyl}-Arginyl-OH] (Hydrocinnamoyl-[Cha]GL[d(hhPhe)]R-OH) | 0.72 µM
